Laboratory results published in patent publication US11179348B2, “Combination comprising pterostilbene for the treatment of cancer” (FUNDACIÓN UNIVERSIDAD CATÓLICA DE VALENCIA SAN VICENTE …, priority 2015, dated 2021).
Marks after values point to notes of the source that are not given here.

Assays:
A2058 melanoma cells = assay: NO production (NOx) in cultured A2058 cells isolated from treated mice; assay type: cell-based, human; details: 24-h cultured A2058 cells isolated from Pter-treated mice
A2058 melanoma = assay: In vivo growth of A2058 melanoma xenografts in nu/nu mice; set-up: species or system human
A549 lung adenocarcinoma = assay: In vivo growth of A549 lung cancer xenografts; set-up: species or system human; details: A549, day 35
MelJuso melanoma = assay: In vivo growth of MelJuso melanoma xenografts in nu/nu mice; set-up: species or system human
human melanoma cells = assay: Effect of pterostilbene on melanoma cell growth and viability in vitro; assay type: cell-based
MelJuso melanoma cells = assay: Nrf2- and redox state-related enzyme activities and metabolites in MelJuso cells growing in vivo; set-up: species or system human; details: in vivo +Pter, day 35
Experimental: Transfection of the Red Fluorescence Protein.
First the pDsRed-2 vector (Clontech Laboratories Inc., Palo Alto, Calif.) was used, as previously described for A375 melanoma cells (Mena, S. et al. J Transl Med 10, 8 (2012)), to engineer A2058, MeWo and MelJuso melanoma clones stably expressing the RFP. Isolation of A2058-RFP, MeWo-RFP or MelJuso-RFP cells from the growing xenografts was performed by laser microdissection and high-performance cell sorting as previously described in detail (Mena, S. et al. J Transl Med 10, 8 (2012)).
To measure enzyme activity, isolated tumor cells were homogenized in 0.1 M phosphate buffer (pH 7.2) at 4° C. GCL and GSS activities were measured as described previously (Obrador, E. et al. Hepatology 35, 74-81 (2002)). GPX (selenium dependent) activity was measured as described by Flohé and Gunzler (Flohe, L. & Gunzler, W. A. Methods Enzymol 105, 114-121 (1984)) using H2O2 as a substrate. GSR activity was determined as described by Akerboom and Sies (Akerboom, T. P. et al, Bull Eur Physiopathol Respir 17 Suppl, 221-227 (1981)). GGT activity was measured as described previously (Obrador, E. et al. Hepatology 35, 74-81 (2002)). GST activity was measured using an assay kit from Sigma. TXNRD activity, defined by the concentration of sodium-lipoate (disulfide) reduced to dehydrolipoate (dithiol) per milligram protein, was measured as previously described (Javvadi, P. et al. Cancer Res 70, 1941-1950 (2010)). SOD activity was measured as described by Flohé and Otting (Flohe, L. & Otting, F. Methods Enzymol 105, 93-104 (1984).) using 2 mM cyanide in the assay medium to distinguish mangano-type enzyme (SOD2) from the cuprozinc type (SOD1). CAT activity was analyzed as described by Aebi (Aebi, H. Methods Enzymol 105, 121-126 (1984)). NOX activity was measured by chemiluminescence following the methodology of Wind et al. (Wind, S. et al. Comparative pharmacology of chemically distinct NADPH oxidase inhibitors. Br J Pharmacol 161, 885-898 (2010)). Protein concentration was determined with the Pierce BCA protein assay (Fisher Scientific, Waltham, Mass.).
Measurement of H2O2 and O2^⋅−.
Quantitative measurement of H2O2 and flow cytometry determination of O2^⋅− generation were performed as previously described (Benlloch, M. et al. J Biol Chem 281, 69-79 (2006)).
GSH, GSSG, NADP^+ and NADPH Determination.
GSH and GSSG were determined, following procedures previously described (Obrador, E. et al. PLoS One 9, e96466 (2014)), by LC/MS using the same equipment described above for pterostilbene determination. Cell processing was performed according to published methodology, where rapid N-ethylmaleimide derivatization was used to prevent GSH auto-oxidation (Asensi, M. et al. Anal Biochem 217, 323-328 (1994)). NADP^+ and NADPH were quantitated using an assay kit from Sigma (St. Louis, Mo.).

CRH mRNA = assay: CRH expression in the hypothalamic PVN (in situ hybridization); assay type: in vivo; details: melanoma-bearing mice; significant in MeWo- and MelJuso-bearing mice
Experimental: CRH Expression in the Brain (In Situ Hybridization).
Sections of 10 μm of the PVN were cut according to a mouse brain atlas (Allen Institute for brain science, http://www.brain-map.org) on a cryostat, mounted on polysine microscope slides (Menzel-Glazer, Braunschweig, Germany), and stored at −80° C. for 24 h. Then sections were fixed in 4% paraformaldehyde, further permeabilized by proteinase K treatment, acetylated twice with 0.25% acetic anhydride in 0.1 M triethanolamine, and dehydrated in a graded ethanol series. Hybridization, carried out as described before (Lachize, S. et al. Proc Natl Acad Sci USA 106, 8038-8042 (2009)), was performed using specific 48-mer, ^35S-labeled oligonucleotide probes for murine CRH mRNA (5′-GGCCCGCGGCGCTCCAGAGACGGATCCCCTGCTCAGCAGGGCCCTGCA-3′) (SEQ ID NO: 1). Hybridized slices were exposed to BioMax MR film (Kodak, Rochester, N.Y.). The mRNA expression of CRH in the PVN was quantified as gray density minus background in digitized images using the NIH ImageJ 1.6 program (http://rsb.info.nih.gov/ij). Bilateral measures were taken from two to four PVN sections for each mouse, which were pooled to provide individual means per mouse. For tissue background, the optical density of a nonhybridized region outside the PVN was measured.

human A375 melanoma = details: 20 μM Pter, 24 h, in vitro; cited from earlier work
[1] = system: LNCaP prostate adenocarcinoma; assay: In vivo growth of LNCaP prostate cancer xenografts; set-up: species or system human; details: day 49

With `COc1cc(/C=C/c2ccc(O)cc2)cc(OC)c1` [Pter, trans-3,5-dimethoxy-4′-hydroxystilbene] the “NO production (NOx=NO2^− plus NO3^−)” value (A2058 melanoma cells) was 0.15±0.04 nmol/10^6 cells, the “inhibition of tumor growth” value (A2058 melanoma; A2058, day 35, 30 mg Pter/kg i.v. every 48 h, vs controls) was “approx. 70%” and the Tumor vol. (A2058 melanoma; A2058-RFP, 35 days after inoculation, Pter 30 mg/kg i.v. every 48 h and/or CRC infusion 0.3 μg/h) was 258 ± 66* mm^3. The Tumor vol. (A549 lung adenocarcinoma) was 223 ± 88* mm^3, the “inhibition of tumor growth” value (MelJuso melanoma; MelJuso, day 42, 30 mg Pter/kg i.v. every 48 h, vs controls) was ~49% and the Tumor vol. (MelJuso melanoma; MelJuso-RFP, 35 days after inoculation, Pter 30 mg/kg i.v. every 48 h and/or CRC infusion 0.3 μg/h) was 145 ± 35* mm^3. For the same compound, the “pterostilbene levels in culture medium during incubation” value (human melanoma cells; human melanoma cells, 60 min incubation) was “remained unchanged”, the “melanoma cell proliferation and viability in vitro” value (human melanoma cells; pterostilbene 15 μM, 60 min each 24 h) was “nor tumor cell proliferation neither viability were significantly affected” and the CAT (MelJuso melanoma cells) was 1.1 ± 0.3 mU/10^6 cells. It also gave a G6PDH (MelJuso melanoma cells) of 366 ± 63 mU/10^6 cells, a GCL (MelJuso melanoma cells) of 49 ± 12 mU/10^6 cells and a GGT (MelJuso melanoma cells) of 15.9 ± 3.5 mU/10^6 cells. For the same compound, the GPX (MelJuso melanoma cells) was 2.1 ± 0.5 mU/10^6 cells, the GSH (MelJuso melanoma cells) was 10.8 ± 2.9 nmol/10^6 cells and the GSH/GSSG (MelJuso melanoma cells) was 108 ± 17. It also gave a GSR (MelJuso melanoma cells) of 5.1 ± 1.0 mU/10^6 cells, a GSS (MelJuso melanoma cells) of 7.8 ± 1.5 mU/10^6 cells and a GSSG (MelJuso melanoma cells) of 0.1 ± 0.04 nmol/10^6 cells. The GST (MelJuso melanoma cells) was 4.7 ± 1.3 mU/10^6 cells, the H2O2 (MelJuso melanoma cells) was 0.8 ± 0.2 nmol/10^6 cells × min and the IDH (MelJuso melanoma cells) was 1.5 ± 0.4 U/10^6 cells. The ME (MelJuso melanoma cells) was 25 ± 7 mU/10^6 cells, the NADPH (MelJuso melanoma cells) was 0.05 ± 0.02 nmol/mg prot and the “NADPH/NADP^+” value (MelJuso melanoma cells) was 1.7 ± 0.3. The “NADP^+” value (MelJuso melanoma cells) was 0.03 ± 0.01 nmol/mg prot, the NOX (MelJuso melanoma cells) was 142 ± 37 R.L.U./10^6 cells and the “O2^−” value (MelJuso melanoma cells) was 5.0 ± 1.3 ΔFL1, a.u. For the same compound, the SOD1 (MelJuso melanoma cells) was 0.4 ± 0.2 U/10^6 cells, the SOD2 (MelJuso melanoma cells) was 0.1 ± 0.05 U/10^6 cells and the TXN (MelJuso melanoma cells) was 0.3 ± 0.1 μg/10^6 cells. For the same compound, the TXNRD (MelJuso melanoma cells) was 0.6 ± 0.1 U/10^6 cells, the “CRH mRNA expression in the hypothalamic PVN” value (CRH mRNA) was “further decrease” and the “decrease in tumor cell viability” value (human A375 melanoma) was “approx. 30%”. The Tumor vol. [1] was 757 ± 194 mm^3.
